For assay [1], the target named is Glycogen synthase kinase-3 alpha (Homo sapiens, UniProt P49840). Put plainly: TR-FRET Assay. As to the method:
(§1) The assay was performed in a white, 384 well, low volume, flat bottom plate (Grenier). […] The kinase activity was quenched with 2 μL of 250 mM EDTA. A 10 μL volume of 40 nM Strepavidin-d2, 2 nM Tb2+-pSer641 antibody in TR-FRET Detection Buffer (Invitrogen) was then added.
(In general: Time-resolved FRET reads energy transfer from a long-lived donor to a nearby acceptor.)

In assay [2] the target is Glycogen synthase kinase-3 beta (Homo sapiens, UniProt P49841). The experiment in a line: TR-FRET Assay. As to the method: as §1

“And” between values parts separate entries of the source, which are not always exact repeats. Equal entries are not always repeated. Where only a bound is given, the exact number is not on record here.

Glycogen synthase kinase-3 alpha, sequence (P49840 whole entry): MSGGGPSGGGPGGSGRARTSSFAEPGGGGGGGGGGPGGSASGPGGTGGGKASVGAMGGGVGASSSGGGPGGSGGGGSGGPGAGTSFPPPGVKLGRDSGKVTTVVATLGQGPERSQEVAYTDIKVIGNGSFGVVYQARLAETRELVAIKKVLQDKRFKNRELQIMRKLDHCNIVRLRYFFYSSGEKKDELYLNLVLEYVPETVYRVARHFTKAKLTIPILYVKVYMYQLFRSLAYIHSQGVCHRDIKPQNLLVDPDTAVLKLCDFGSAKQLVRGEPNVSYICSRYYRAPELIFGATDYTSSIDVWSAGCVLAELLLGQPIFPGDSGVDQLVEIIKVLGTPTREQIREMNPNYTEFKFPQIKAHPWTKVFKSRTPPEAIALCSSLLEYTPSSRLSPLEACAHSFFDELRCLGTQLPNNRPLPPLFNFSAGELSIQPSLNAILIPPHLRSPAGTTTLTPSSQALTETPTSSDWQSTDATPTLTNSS
Glycogen synthase kinase-3 beta, sequence (P49841 whole entry): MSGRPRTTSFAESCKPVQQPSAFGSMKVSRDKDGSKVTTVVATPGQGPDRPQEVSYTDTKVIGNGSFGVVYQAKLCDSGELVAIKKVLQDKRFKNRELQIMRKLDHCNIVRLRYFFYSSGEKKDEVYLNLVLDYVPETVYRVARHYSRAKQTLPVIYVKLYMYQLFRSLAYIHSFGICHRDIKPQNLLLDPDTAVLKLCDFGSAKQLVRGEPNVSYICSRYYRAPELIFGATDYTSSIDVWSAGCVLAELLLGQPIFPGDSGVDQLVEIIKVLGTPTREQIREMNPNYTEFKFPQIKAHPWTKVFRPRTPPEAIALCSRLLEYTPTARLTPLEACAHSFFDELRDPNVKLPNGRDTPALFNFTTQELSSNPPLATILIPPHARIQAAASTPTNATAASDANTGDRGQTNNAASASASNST

In the case of `CC[C@@]1(c2cccc(C(C)C)c2)C2=C(CC(C)(C)NC2=O)NC2N=NC(C(F)(F)F)=C21` (stereo not given in full) [US20250313563, Compound 950494], the IC50 in assay [1] was below 100 nM; in assay [2], < 100 nM and 100 to 1000 nM.
Regarding `CC1(C)CC(=O)C2=C(C1)NC1=C(CN=N1)[C@@]21CO[C@@H](C2CC2)C1` [US20250313563, Compound 913442], the concentration for half-maximal inhibition (IC50) in assay [1] and in assay [2] was 100 to 1000 nM each time.
As to `CCC1(c2cccc(S(C)(=O)=O)c2)C2=C(CC(C)(C)NC2=O)NC2N=NC(C(F)(F)F)=C21` (stereo not given) [US20250313563, Compound 947799], the IC50 in assay [1] and in assay [2] was below 100 nM each time.
On to `CC[C@@]1(c2cccc(S(=O)(=O)CCOC)c2)C2=CN=NC2NC2=C1C(=O)CC(C)(C)C2` (stereo not given in full) [US20250313563, Compound 943546], for which the values for the IC50 in assay [1] and in assay [2] were 1000 to 5000 nM and above 5000 nM, respectively.
The corresponding values for `CC[C@]1(c2cccc(N(C)c3ccncc3)c2)C2=CN=NC2NC2=C1C(=O)CC(C)(C)C2` (stereo not given in full) [US20250313563, Compound 874260] are below 100 nM and 100 to 1000 nM.
The corresponding values for `CCC1(c2cccc(-c3cnn4c3CCCC4)c2)C2=CN=NC2NC2=C1C(=O)CC(C)(C)C2` (stereo not given) [US20250313563, Compound 926836] are below 100 nM and 100 to 1000 nM.
The corresponding values for `C[C@@H]1CCC[C@]2(C1)C1=C(N=NC1)NC1=C2C(=O)CC(C)(C)C1` [US20250313563, Compound 893320] are below 100 nM and below 100 nM.
For the compound `CC1(C)CC(=O)C2=C(C1)NC1=C(CN=N1)C21CS(=O)(=O)C1` [US20250313563, Compound 912170], the 50% inhibitory concentration (IC50) was 1000 to 5000 nM in assay [1] and above 5000 nM in assay [2].
The corresponding values for `CC1(C)CC(=O)C2=C(C1)NC1=C(CN=N1)C21COC2(CN(C(=O)C3(C)CCCC3)C2)C1` (stereo not given) [US20250313563, Compound 947307] are below 100 nM and below 100 nM.
In the same order, the values of `CC[C@@]1(c2cccc(-c3ccnc(OC)c3Cl)c2)C2=CN=NC2NC2=C1C(=O)NC(C)(C)C2` (stereo not given in full) [US20250313563, Compound 952754] are below 100 nM and 100 to 1000 nM.
In the same order, the values of `CCC1(c2cccc(N3CC4CCC(C4)C3)c2)C2=CN=NC2NC2=C1C(=O)CC(C)(C)C2` (stereo not given) [US20250313563, Compound 885099] are 100 to 1000 nM and 1000 to 5000 nM.
For the compound `CC(C)(C)CC(=O)N1CC2(C1)CC1(CO2)C2=C(N=NC2)NC2=C1C(=O)CC(C)(C)C2` (stereo not given) [US20250313563, Compound 947301], the IC50 was in the range of 100 to 1000 nM in assay [1] and 1000 to 5000 nM in assay [2].
For the compound `CC[C@]1(c2cccc(-c3cn(C)nc3C)c2)C2=CN=NC2NC2=C1C(=O)NC1(CCC1)C2` (stereo not given in full) [US20250313563, Compound 950055], the IC50 in assay [1] was below 100 nM; in assay [2], < 100 nM and 100 to 1000 nM.
Take `Cc1cc(C)cc(C(=O)N2CC3(C2)CC2(CO3)C3=C(N=NC3)NC3=C2C(=O)CC(C)(C)C3)c1` (stereo not given) [US20250313563, Compound 947296]: the IC50 in assay [1] and in assay [2] was below 100 nM in each case.
As to `CCC1(c2cccc(C3=CN=NC3)c2)C2=C(CC(C)(C)CC2=O)NC2N=NC(C)=C21` (stereo not given) [US20250313563, Compound 883994], the IC50 in assay [1] and in assay [2] was below 100 nM throughout.
Turning to `CCC1(c2cccc(N3CCc4ccncc4C3)c2)C2=CN=NC2NC2=C1C(=O)CC(C)(C)C2` (stereo not given) [US20250313563, Compound 917148], the results for the IC50 in assay [1] and in assay [2] were 1000 to 5000 nM and above 5000 nM, respectively.
Take `CC1(C)CC(=O)C2=C(C1)NC1=C(CN=N1)C21CCN(S(=O)(=O)c2ccccc2C(F)F)CC1` [US20250313563, Compound 945657]: the half-inhibitory concentration (IC50) in assay [1] was < 100 nM and 100 to 1000 nM; in assay [2], 100 to 1000 nM and 1000 to 5000 nM.
In the case of `CC[C@@]1(c2cccc(-c3cnn4c3CCCC4)c2)C2=C(CC(C)(C)NC2=O)NC2N=NC(C)=C21` (stereo not given in full) [US20250313563, Compound 947817], the IC50 in assay [1] and in assay [2] was below 100 nM in each case.
With `CC[C@]1(c2cccc(-c3ccnc(C)c3)c2)C2=CN=NC2NC2=C1C(=O)CC(C)(C)C2` (stereo not given in full) [US20250313563, Compound 865169], the IC50 in assay [1] was < 100 nM and 100 to 1000 nM; in assay [2], 100 to 1000 nM and > 5000 nM.
In the case of `CCC1(c2ccccc2)C2=C(CC(C)(C)CC2=O)NC2N=NC(Br)=C21` (stereo not given) [US20250313563, Compound 789459], the half-maximal inhibitory concentration (IC50) in assay [1] and in assay [2] was below 100 nM throughout.
Take `CC(C)N1CC2(C1)C1=C(N=NC1)NC1=C2C(=O)CC(C)(C)C1` [US20250313563, Compound 932650]: the half-inhibitory concentration (IC50) in assay [1] and in assay [2] was above 5000 nM throughout.
As to `CC[C@@]1(c2cccc(-c3ccnc4ccc(Cl)cc34)c2)C2=CN=NC2NC2=C1C(=O)N(C)C(C)(C)C2` (stereo not given in full) [US20250313563, Compound 948517], the IC50 in assay [1] and in assay [2] was below 100 nM in each case.
As for `CCC1(c2cccc(CN(C)C(=O)C(C)C)c2)C2=CN=NC2NC2=C1C(=O)CC(C)(C)C2` (stereo not given) [US20250313563, Compound 865195], the values for the IC50 in assay [1] and in assay [2] were 100 to 1000 nM and above 5000 nM, respectively.
For `CC1(C)CC(=O)C2=C(C1)NC1=C(CN=N1)C21CCN(S(=O)(=O)c2ccccc2F)CC1` [US20250313563, Compound 901465], the IC50 in assay [1] is below 100 nM; in assay [2] it was < 100 nM and 100 to 1000 nM.
On to `CCC1(c2cccc(-c3cn(C)nc3C)c2)C2=C(CC(C)(C)NC2=O)NC2N=NC(C)=C21` (stereo not given) [US20250313563, Compound 945460], for which the half-inhibitory concentration (IC50) in assay [1] and in assay [2] was below 100 nM in each case.
In the case of `CC[C@]1(c2cccc(-c3cn(C)nc3C(C)C)c2)C2=C(CC(C)(C)CC2=O)NC2N=NC(C)=C21` (stereo not given in full) [US20250313563, Compound 913040], the IC50 in assay [1] lay in the range of 100 to 1000 nM; in assay [2], 1000 to 5000 nM.
The corresponding values for `CC[C@@]1(c2cccc(-c3c(C)nn(C)c3C)c2)C2=C(CC(C)(C)CC2=O)NC2N=NC(C)=C21` (stereo not given in full) [US20250313563, Compound 913026] are 100 to 1000 nM and 100 to 1000 nM.
The corresponding values for `CC[C@@]1(c2cccc(-c3cc(C)nc(C)c3)c2)C2=CN=NC2NC2=C1C(=O)CC(C)(C)C2` (stereo not given in full) [US20250313563, Compound 913223] are above 5000 nM and above 5000 nM.
As to `CCC1(c2cccc(N(C)c3nccc(C)n3)c2)C2=CN=NC2NC2=C1C(=O)CC(C)(C)C2` (stereo not given) [US20250313563, Compound 942642], the 50% inhibitory concentration (IC50) in assay [1] was below 100 nM; in assay [2], < 100 nM and 1000 to 5000 nM.
With `CCC1(c2cccc(N3[C@H](C)CCC[C@@H]3C)c2)C2=CN=NC2NC2=C1C(=O)CC(C)(C)C2` (stereo not given in full) [US20250313563, Compound 865172], the results for the IC50 in assay [1] and in assay [2] were 100 to 1000 nM and 1000 to 5000 nM, respectively.
Take `CC[C@@]1(c2cccc(-c3c(C)cncc3C)c2)C2=CN=NC2NC2=C1C(=O)NC(C)(C)C2` (stereo not given in full) [US20250313563, Compound 948812]: the half-inhibitory concentration (IC50) is < 100 nM and 100 to 1000 nM in assay [1]; < 100 nM and 1000 to 5000 nM in assay [2].
For `CC[C@]1(c2cccc(-c3cnn(Cc4ccc(C(F)(F)F)cc4)c3)c2)C2=CN=NC2NC2=C1C(=O)NC(C)(C)C2` (stereo not given in full) [US20250313563, Compound 949511], the IC50 in assay [1] and in assay [2] was above 5000 nM throughout.
Regarding `CC1(C)CC(=O)C2=C(C1)NC1=C(CN=N1)C21CCN(S(=O)(=O)c2cccc(OC(F)F)c2)CC1` [US20250313563, Compound 947242], the IC50 was below 100 nM in assay [1]; < 100 nM and 100 to 1000 nM in assay [2].
Turning to `CC[C@@]1(c2cccc(-c3ccnc(C)c3)c2)C2=CN=NC2NC2=C1C(=O)N[C@H](C)C2` (stereo not given in full) [US20250313563, Compound 926300], the IC50 in assay [1] is < 100 nM and 100 to 1000 nM; in assay [2] it was 100 to 1000 nM and > 5000 nM.
As to `CC[C@]1(c2cccc(-c3ccncc3F)c2)C2=C(CC(C)(C)NC2=O)NC2N=NC(Cl)=C21` (stereo not given in full) [US20250313563, Compound 949756], the IC50 in assay [1] and in assay [2] was above 5000 nM each time.
Turning to `CC1(C)CC(=O)C2=C(C1)NC1=C(CN=N1)[C@]21COC2(CN(C(=O)C3(F)CCC3)C2)C1` [US20250313563, Compound 947735], the IC50 in assay [1] and in assay [2] was below 100 nM throughout.
Take `CC[C@]1(c2cc(N(C)C(C)=O)ccc2F)C2=C(CC(C)(C)CC2=O)NC2N=NC(C)=C21` (stereo not given in full) [US20250313563, Compound 929451]: the IC50 in assay [1] and in assay [2] was above 5000 nM throughout.
Consider `CC[C@]1(c2cccc(-c3cnn(C)c3)c2)C2=CN=NC2NC2=C1C(=O)C[C@@H](C)C2` (stereo not given in full) [US20250313563, Compound 823721], for which the 50% inhibitory concentration (IC50) in assay [1] and in assay [2] was 100 to 1000 nM throughout.
As for `CC[C@@]1(c2cccc(-c3c([N+](=O)O)c(C)nn3C)c2)C2=CN=NC2NC2=C1C(=O)NC(C)(C)C2` (stereo not given in full) [US20250313563, Compound 952209], the IC50 in assay [1] and in assay [2] was below 100 nM in each case.
For the compound `CCN(c1cccc(C2(CC)C3=CN=NC3NC3=C2C(=O)CC(C)(C)C3)c1)c1ncccn1` (stereo not given) [US20250313563, Compound 919840], the IC50 in assay [1] and in assay [2] was below 100 nM in each case.
As for `CC[C@]1(c2cccc(-c3cc(C)nn3C)c2)C2=CN=NC2NC2=C1C(=O)CC(C)(C)C2` (stereo not given in full) [US20250313563, Compound 946000], the half-inhibitory concentration (IC50) in assay [1] and in assay [2] was above 5000 nM each time.
Turning to `CCC1(c2cccc(Br)c2)C2=C(N=NC2)NC2=C1C(=O)C(C)(C)C2` (stereo not given) [US20250313563, Compound 949805], the concentration for half-maximal inhibition (IC50) lay within 100 to 1000 nM in assay [1] and 1000 to 5000 nM in assay [2].
The corresponding values for `CCC1(c2cccc(-c3cn(C)nc3C)c2)C2=CN=NC2NC2=C1C(=O)N(C)C(C)(C)C2` (stereo not given) [US20250313563, Compound 948304] are below 100 nM and below 100 nM.
As for `CC[C@@]1(c2cccc(-c3cn(C)nc3C)c2)C2=CN=NC2NC2=C1C(=O)CC(C)(C)C2` (stereo not given in full) [US20250313563, Compound 945546], the IC50 in assay [1] was below 100 nM; in assay [2], < 100 nM and 100 to 1000 nM.
`CC[C@@]1(c2cccc(-c3c(F)cncc3OC)c2)C2=CN=NC2NC2=C1C(=O)CC(C)(C)[C@H]2F` (stereo not given in full) [US20250313563, Compound 948547]: the results for the IC50 in assay [1] and in assay [2] were 100 to 1000 nM and 1000 to 5000 nM, respectively.

Usually IC50 stands for the concentration that gives 50% inhibition. Read a high IC50 as lower potency.

The values are drawn from BindingDB's records for patent US20250313563 (The Broad Institute, 2025).
